Values of other authors in patent publication US20110224196A1, “TREATMENT OF O[…] APNEA SYNDROME WITH A COMBINATION OF A CARBONIC ANHYDRASE INHIBITOR AND AN […] AGENT” (Vivus, Inc., priority 2010, published 2011).

## NC(=O)C[S+]([O-])C(c1ccccc1)c1ccccc1 (stereo not shown) [Modafinil, 2-[(diphenylmethy)sulfinyl]-N-acetamide]
acetone
  solubility in acetone: sparingly or slightly soluble
cyclohexane
  solubility in cyclohexane: insoluble
methanol
  solubility in methanol: sparingly or slightly soluble
water
  solubility in water: insoluble
